Test results from US5521319A, “Biotinylation reagent and method of use thereof” (priority 1993, dated 1996).
Values after ≈ are worked out from the molar mass of the structure shown.

Experiments:
[1] = Solubility of biotinylation reagents at 20° C.; format: physicochemical; conditions: for Solubility in DMF / Solubility in methanol / Solubility in water / Solubility in dichloromethane: 20° C.
Excerpt: [table 1: the next 15 blocks are its lines as printed, fixed-width]

TSH [2] = assay: Immunological determination of TSH using streptavidin magnetic particles and photometric signal measurement
Excerpt: (§1) After dialysis against 25 mmol/l potassium phosphate/50 mmol/l sodium chloride pH 7.0, the product is lyophilized.

TSH [3] = assay: Electrochemiluminescence immunological determination of TSH with biotinylated antibody, ruthenium-labelled F(ab')2 and streptavidin magnetic particles
Excerpt: as §1

[4] = cited from earlier work; for Solubility in organic solvents: organic solvents with the exception of DMSO and DMF
[5] = electrochemiluminescence measurement, vs biotin-NHS

## O=C(CCCC[C@@H]1SC[C@@H]2NC(=O)N[C@@H]21)NCCCCCC(=O)ON1C(=O)CCC1=O [NHS-LC-biotin]
[1]
  Solubility in DMF: 20000 µg/mL (≈ 44 mM)
  Solubility in methanol: 20000 µg/mL (≈ 44 mM)
[1]; water
  Solubility in water: 2000 µg/mL (≈ 4.4 mM)

## O=C(CCCCCCC(=O)ON1C(=O)CCC1=O)NCCOCCOCCNC(=O)CCCC[C@@H]1SC[C@@H]2NC(=O)N[C@@H]21 [biotin-DDS, biotinoyl-amino-3,6-dioxaoctanyl-aminocarbonyl-heptanoic acid-N-hydroxysuccinimide ester]
[1]
  Solubility in DMF: 20000 µg/mL (≈ 31.9 mM)
  Solubility in methanol: 20000 µg/mL (≈ 31.9 mM)
[1]; compared with biotinylation reagents of the state of the art
  Solubility spectrum compared with known reagents: considerably broader solubility spectrum than known compounds
[1]; dichloromethane
  Solubility in dichloromethane: 10000 µg/mL (≈ 15.9 mM)
[1]; water
  Solubility in water: 7000 µg/mL (≈ 11.2 mM)
[1]; water, dichloromethane
  Solubility in strongly polar (water) and non-polar (dichloromethane) solvents: good solubility
TSH [2]; magnetic particle test with antibody-POD conjugate, vs antibody biotinylated with biotin-X-NHS
  Photometric signal of labelled antibody compared with biotin-X-NHS: significantly higher signals
TSH [2]; photometric measurement
  Degree of biotinylation giving the signal optimum: signal optimum at a lower degree of biotinylation
TSH [3]; electrochemiluminescence and other immunological tests with spherical solid phases, vs biotin-NHS
  Performance of conjugates produced with the reagent, better than with biotin-NHS: about 3.5 fold
TSH [3]; electrochemiluminescence and other immunological tests with spherical solid phases, vs biotin-X-NHS
  Performance of conjugates produced with the reagent, better than with biotin-X-NHS: 1.3 fold
TSH [3]; electrochemiluminescence measurement, vs antibodies biotinylated via biotin-X-NHS
  Signal yield of antibodies biotinylated via biotin-DDS, higher than via biotin-X-NHS: 25.7%
TSH [3]; [5]
  Signal of biotinylated antibodies compared with spacer-free biotin-NHS: considerably higher signals

## O=C1N[C@H]2[C@H](CS[C@H]2CCCCC(=O)ON2C(=O)CCC2=O)N1 [biotin-NHS, biotin-N-hydroxysuccinimide esters]
[4]
  Solubility in organic solvents: only moderately soluble
  Solubility in water and aqueous buffer solutions: only moderate solubility

## O=C(CCCC[C@@H]1SC[C@@H]2NC(=O)N[C@@H]21)NCCCCCC(=O)ON1C(=O)CCC1=O [biotin-X-NHS, biotinoylaminocaproic acidN-hydroxysuccinimide ester]
[1]
  Solubility in DMF: 10000 µg/mL (≈ 22 mM)
  Solubility in methanol: 10000 µg/mL (≈ 22 mM)
[1]; dichloromethane
  Solubility in dichloromethane: < 1000 µg/mL
[1]; water
  Solubility in water: 10000 µg/mL (≈ 22 mM)
[4]
  Solubility in organic solvents: only moderately soluble
  Solubility in water and aqueous buffer solutions: only moderate solubility
TSH [3]; [5]
  Signal of biotinylated antibodies compared with spacer-free biotin-NHS: considerably higher signals

## O=C(CCCC[C@@H]1SC[C@@H]2NC(=O)N[C@@H]21)NCCCCCC(=O)ON1C(=O)CC(S(=O)(=O)O)C1=O (some centres unmarked) [sulfo-NHS-LC-biotin]
[4]; aqueous medium
  Solubility in an aqueous medium: good solubility
[4]; organic solvents, in the required concentrations
  Solubility in organic solvents in the required concentrations: not soluble
